Test results taken from PubChem BioAssay AID1648 (Sanford-Burnham Center for Chemical Genomics, 2009).
Activity calls are given as the source filed them. How the calls were made is not given here.

Target: Serine/threonine-protein kinase mTOR (Homo sapiens) (UniProt P42345)
Assay: binders of mTOR FRB domain, biophysical, NMR (AID 1648)
Conditions: NMR binding to FRB domain, chemical shift

Chain of Serine/threonine-protein kinase mTOR (Homo sapiens) (P42345 2015-2114): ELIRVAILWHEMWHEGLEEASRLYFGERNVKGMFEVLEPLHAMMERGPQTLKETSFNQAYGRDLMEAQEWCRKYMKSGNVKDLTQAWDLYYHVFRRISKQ

SMILES | Kd
COc1ccccc1-c1cn[nH]c(=S)n1 | > 4 mM (inactive)
COc1ccc(C(=O)/C=C/c2ccccc2)cc1 | > 4 mM (inactive)
NC(=O)CSc1ccc2nnc(-c3ccccc3)n2n1 | > 4 mM (inactive)
OCC1COc2ccccc2C1 (configuration not stated) | > 4 mM (inactive)
NC(=O)CS(=O)(=O)c1ccc(Cl)cc1 | > 4 mM (inactive)
CC(C)C(C)/C=C/C(C)[C@H]1CCC2C3=CCC4CC(=O)CC[C@]4(C)C3CC[C@@]21C (some centres not stated) | > 4 mM (inactive)
Cc1occc1C(=O)NCc1ccncc1 | > 4 mM (inactive)
COc1ccc(S(=O)(=O)NCCO)cc1 | > 4 mM (inactive)
CCOC(=O)C1CCN(Cc2ccccc2)CC1=O (configuration not stated) | > 4 mM (inactive)
C=CC(C1=CC(=O)C=CC1=O)c1ccccc1 (configuration not stated) | > 4 mM (inactive)
O=C(Cc1ccc(F)cc1)Nc1ncccn1 | > 4 mM (inactive)
Nc1ccc(Cl)nn1 | > 4 mM (inactive)
CSc1ccccc1NC(=O)c1ccc(C)o1 | > 4 mM (inactive)
O=C(Nc1nc2ccccc2s1)c1ccc(=O)[nH]n1 | > 4 mM (inactive)
COc1cccc(C(=O)Nc2c(C)n[nH]c2C)c1 | > 4 mM (inactive)
O=[n+]1cc(C2=CC=CCC2)n([O-])c2c1CCCCC2 | > 4 mM (inactive)
C[C@H]1[C@H](C)CC[C@]2(CO)CC[C@]3(C)C(=CCC4[C@@]5(C)CC[C@H](O)C(C)(C)C5CC[C@]43C)[C@H]12 (some centres not stated) | > 4 mM (inactive)
CC(=O)Oc1cc(-c2coc3cc(OC(C)=O)c(OC(C)=O)c(OC(C)=O)c3c2=O)cc(OC(C)=O)c1OC(C)=O | > 4 mM (inactive)
c1ccc(-c2noc(-c3ccc4c(c3)OCO4)n2)nc1 | > 4 mM (inactive)
CC(C)(C)C(=O)Nc1nnc(SCC(N)=O)s1 | > 4 mM (inactive)
O=C1CCC(=O)N1c1cccnc1 | > 4 mM (inactive)
COc1ccc(S(=O)(=O)N2CCC(C(N)=O)CC2)cc1 | > 4 mM (inactive)
O=C(O)c1ccc2c(c1)CCO2 | > 4 mM (inactive)
CCN1CCN(c2ncnc3c2nnn3C)CC1 | > 4 mM (inactive)

SMILES | Kd
Oc1ccc2c(c1)OCO2 | > 4 mM (inactive)
Cc1cc(/C=N/O)nc(=O)[nH]1 | > 4 mM (inactive)
Nc1cc(=O)[nH]c(SCC(=O)NC2CCCCC2)n1 | > 4 mM (inactive)
Oc1ccc(/C=C/c2cc(O)cc(O)c2)cc1 | > 4 mM (inactive)
OCc1ccc(N2CCOCC2)cc1 | > 4 mM (inactive)
Cc1nn2c(-c3ccncc3)nnc2c2ccccc12 | > 4 mM (inactive)
Cc1nnsc1-c1onc(C)c1C(=O)O | > 4 mM (inactive)
O=S(=O)(O)c1cc[n+]([O-])cc1 | > 4 mM (inactive)
COc1c(F)c(F)c(-c2csc(N)n2)c(F)c1F | > 4 mM (inactive)
Cc1nnc(-n2cnc3ccccc32)c2ccccc12 | > 4 mM (inactive)
Cc1nnsc1C(=O)Nc1ccc(C(N)=O)cc1 | > 4 mM (inactive)
NC(=O)c1ccc(N2C(=O)CCC2=O)cc1Cl | > 4 mM (inactive)
O=C1CC(C(=O)O)c2ccccc21 (configuration not stated) | > 4 mM (inactive)
COC(=O)C[C@@H]1C2(C)C(=O)[C@@H](CC3=C4CC(O)O[C@@H](c5ccoc5)[C@]4(C)CCC32)[C@H](O)C1(C)C (some centres not stated) | > 4 mM (inactive)
COc1cc(S(=O)(=O)Nc2cccnc2)ccc1F | > 4 mM (inactive)
NCc1ccc2sccc2c1 | > 4 mM (inactive)
COc1ccc(C(=O)NCC(=O)O)cc1 | > 4 mM (inactive)
c1ccc(-c2noc(-c3cccnc3)n2)nc1 | > 4 mM (inactive)
CS(=O)(=O)N1CCN(C(=O)c2ccccc2)CC1 | > 4 mM (inactive)
CC(=O)O[C@@H]1C=C[C@@]2(C)C(C[C@@H](OC(C)=O)[C@@]3(C)C4=CC(=O)O[C@@H](c5ccoc5)[C@]4(C)CCC23)C1(C)C (some centres not stated) | > 4 mM (inactive)
CN(C)Cc1c(N)cccc1O | > 4 mM (inactive)
OC[C@@H](O)[C@@H](O[C@@H]1O[C@H](CO)[C@@H](O)[C@H](O)[C@H]1O)[C@H](O)[C@@H](O)CO | > 4 mM (inactive)
CS(=O)(=O)N1CCN(C(=O)c2ccccc2)C1 | > 4 mM (inactive)
OCc1nc2ccccc2s1 | > 4 mM (inactive)

SMILES | Kd
O=C(Nn1c(=S)[nH]c2ccccc2c1=O)c1ccncc1 | > 4 mM (inactive)
CP(C)(=O)CCC(=O)O | > 4 mM (inactive)
NC(=O)c1ccc(N2CCCCC2)c(N)c1 | > 4 mM (inactive)
O=c1c2ccccc2oc2ccccc12 | > 4 mM (inactive)
C#CCCCCCCCCCCCC(=O)CC(O)COC(C)=O (configuration not stated) | > 4 mM (inactive)
O=C(O)CCC(=O)Nc1nnc(C(F)(F)F)s1 | > 4 mM (inactive)
CN1CN/C(=N\[N+](=O)[O-])N(c2ccccc2)C1 | > 4 mM (inactive)
O=C(O)c1ccc(-c2cccs2)cc1 | > 4 mM (inactive)
CN1CCC=C(C(=O)O)C1 | > 4 mM (inactive)
Nc1ccc2c(c1)S(=O)(=O)C=C2 | > 4 mM (inactive)
COc1c(O)cc2c(-c3ccccc3)cc(=O)oc2c1OC | > 4 mM (inactive)
O=C(Nc1cccnc1)c1c(F)cccc1F | > 4 mM (inactive)
O=C(Nc1nc2c(s1)CCCC2)c1cccnc1 | > 4 mM (inactive)
CC(=O)Nc1ccc(N(C)C(C)=O)cc1 | > 4 mM (inactive)
Cc1cc(=O)c2c(O)c(C)c(O)cc2o1 | > 4 mM (inactive)
C=C1C(=O)O[C@@H]2C[C@@]3(C)CCC[C@H](C)C3=C[C@H]12 | > 4 mM (inactive)
CCC(=O)n1nc(-c2ccco2)nc1N | > 4 mM (inactive)
Cc1ccc(SCc2nc(-c3cccnc3)no2)cc1 | > 4 mM (inactive)
Nc1ccc(Cc2ccncc2)cc1 | > 4 mM (inactive)
CS/C(N)=C\C(C)=O | > 4 mM (inactive)
CN1CCN(C(=O)/C=C\C(=O)O)CC1 | > 4 mM (inactive)
CC(=O)N1CCN(C2CCSC2)CC1 (configuration not stated) | > 4 mM (inactive)
NC1=NC(=O)C(Cc2ccccc2)S1 (configuration not stated) | > 4 mM (inactive)
Nc1cc(F)ccc1-n1ccnc1 | > 4 mM (inactive)

SMILES | Kd
N#Cc1cnc(N2CCCCC2)nc1N | > 4 mM (inactive)
CC(=O)O[C@H]1C[C@@]2(C)[C@@H](C[C@@H](O)C3[C@]2(C)CC[C@H]2[C@H](C)[C@H](O)CC[C@]32C)/C1=C(/CCC=C(C)C)C(=O)O (some centres not stated) | > 4 mM (inactive)
O=c1oc2ccccc2cc1O | > 4 mM (inactive)
O=C(O)C1CSC2(CCCCC2)N1 (configuration not stated) | > 4 mM (inactive)
CC(C)NC(=S)NCc1cnn(C)c1 | > 4 mM (inactive)
NCc1cc2ccccc2s1 | > 4 mM (inactive)
Cn1nnc2cc(C(=O)O)ccc21 | > 4 mM (inactive)
O=C(Nc1ccc2c(c1)OCO2)c1c(F)cccc1F | > 4 mM (inactive)
Fc1cccc(Cl)c1CN1CCNCC1 | > 4 mM (inactive)
CCOC(=O)CC1Sc2ccccc2NC1=S (configuration not stated) | > 4 mM (inactive)
C[C@@H]1OC(O[C@H]2C(O[C@H]3CC[C@@]4(C)C(CC[C@]5(C)C4CC=C4C6CC(C)(C)CC[C@]6(C(=O)O)CC[C@]45C)[C@]3(C)CO)OC[C@H](O)[C@@H]2O)[C@H](O)[C@H](O)[C@H]1O (some centres not stated) | > 4 mM (inactive)
c1cnc(N2CCNCC2)nc1 | > 4 mM (inactive)
NN1C(=O)/C(=C/c2ccc(O)c(O)c2)SC1=S | > 4 mM (inactive)
O=c1[nH]cnc2nn(-c3ccccc3)nc12 | > 4 mM (inactive)
CC(CCC(=O)O)[C@H]1CCC2C3CC[C@@H]4C[C@H](O)CC[C@]4(C)C3C[C@H](O)[C@@]21C (some centres not stated) | > 4 mM (inactive)
NC(=O)c1ccccc1N1CCCCC1 | > 4 mM (inactive)
S=C(NCc1ccco1)NN1CCOCC1 | > 4 mM (inactive)
Cn1c(=O)c2[nH]c(Nc3ccccc3)nc2n(C)c1=O | > 4 mM (inactive)
COC(=O)CCC(C)[C@H]1CCC2C3C(C[C@H](O)[C@@]21C)[C@@]1(C)CC[C@@H](O)C[C@H]1C[C@H]3O (some centres not stated) | > 4 mM (inactive)
COc1ccc(C2NC(C(=O)O)CS2)cc1 (configuration not stated) | > 4 mM (inactive)
CC(C)(C)C(=O)Nc1ncc(C(F)(F)F)cc1Cl | > 4 mM (inactive)
O=C(O)c1cccc2c1OCCCO2 | > 4 mM (inactive)
Cn1nnc2c(N3CCC(C(N)=O)CC3)ncnc21 | > 4 mM (inactive)
Cc1n[nH]c(=S)[nH]c1=O | > 4 mM (inactive)

SMILES | Kd
c1ccc(Cn2cccc2)nc1 | > 4 mM (inactive)
O=S(=O)(O)c1nc2ccccc2[nH]1 | > 4 mM (inactive)
COc1cc2c(cc1-c1coc3c4c(c(OC)cc3c1=O)OC(C)(C)C=C4)OCO2 | > 4 mM (inactive)
OC1CSc2ncnn2C1 (configuration not stated) | > 4 mM (inactive)
OC12C=CC(CC1)CC2 | > 4 mM (inactive)
OCC1CCN(c2ncccn2)CC1 | > 4 mM (inactive)
CC(NC(=O)c1cccnc1)c1ccc2c(c1)OCO2 (configuration not stated) | > 4 mM (inactive)
CC(=O)Nc1ccc(NC2SC(=O)NC2=O)cc1 (configuration not stated) | > 4 mM (inactive)
COC(=O)c1noc(-c2ccc(OC)cc2)n1 | > 4 mM (inactive)
Nc1cc(=O)[nH]c(=O)n1-c1ccccc1 | > 4 mM (inactive)
OCc1ccc2c(c1)OCO2 | > 4 mM (inactive)
O=C(NN1CCOCC1)c1ccccc1F | > 4 mM (inactive)
CCOc1cc(S(=O)(=O)n2nc(C)cc2C)ccc1F | > 4 mM (inactive)
CC(=O)O[C@@H]1CC[C@@]2(C)C(CC[C@]3(C)C2CC=C2C4CC(C)(C)CC[C@]4(C(=O)O)CC[C@]23C)C1(C)C (some centres not stated) | > 4 mM (inactive)
C=CCCCCCCCCCCCc1ccco1 | > 4 mM (inactive)
C[C@]12C=CC(=O)C=C1CCC1C2CC[C@]2(C)C(=O)CCC12 (some centres not stated) | > 4 mM (inactive)
COC(=O)c1ccccc1C | > 4 mM (inactive)
COc1c2occc2c(OC)c2c(=O)cc(C)oc12 | > 4 mM (inactive)
OCC1CN(Cc2ccccc2)CCO1 (configuration not stated) | > 4 mM (inactive)
O=C(O)c1cccnc1Oc1ccccc1 | > 4 mM (inactive)
C=C1[C@H]2CC[C@@]3(C)[C@H](c4ccoc4)OC(=O)C[C@]13O[C@H]1C[C@H](O)C(C)(C)[C@H](CC(=O)OC)[C@]12C | > 4 mM (inactive)
